Laboratory results reported in patent publication US20210353631A1, “1,4-Benzoxazines for the Treatment of Cancers and Other Neurodegenerative Diseases” (Neugeneron LLC, priority 2020, published 2021).

Columns and labels:
451 kinases = experiment: Kinome profiling, count of kinases inhibited in the whole panel; assay type: binding; details: substantially defined as over 36% inhibition at 1 uM
panel of 20 kinases = details: 500 nM; previous analyses; cited from earlier work
GSK3β = GSK3β (Homo sapiens, UniProt P49841); details: kinome profiling studies; cited from earlier work
GSK3β, sequence (P49841 whole entry): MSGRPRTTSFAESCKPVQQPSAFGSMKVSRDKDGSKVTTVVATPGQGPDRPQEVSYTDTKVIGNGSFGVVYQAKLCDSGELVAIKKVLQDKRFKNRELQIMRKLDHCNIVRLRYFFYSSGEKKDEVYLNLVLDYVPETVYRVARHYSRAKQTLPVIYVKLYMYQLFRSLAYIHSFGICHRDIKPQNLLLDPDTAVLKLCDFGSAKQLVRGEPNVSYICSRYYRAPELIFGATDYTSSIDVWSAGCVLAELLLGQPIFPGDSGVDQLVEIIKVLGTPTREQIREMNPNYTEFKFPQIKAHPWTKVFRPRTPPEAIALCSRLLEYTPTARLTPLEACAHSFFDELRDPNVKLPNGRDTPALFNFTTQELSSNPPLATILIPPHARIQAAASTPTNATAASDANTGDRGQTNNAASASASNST

p38 MAPK = details: kinome profiling studies; cited from earlier work
[1] = molecular target: cyclin-dependent kinases (CDKs); details: kinome profiling studies; cited from earlier work
mouse model of HD = details: cited from earlier work
fly model of AD = details: widely-used fly model of AD; cited from earlier work
[2] = system: cell culture models of neurodegeneration; details: cited from earlier work

| Structure (SMILES) | kinases inhibited substantially of the 451 kinases tested (451 kinases) | kinases inhibited out of a panel of 20 kinases (panel of 20 kinases) | kinase inhibition (in words) (GSK3β) | kinase inhibition (in words) (p38 MAPK) | kinase inhibition (in words) [1] | behavioral performance (mouse model of HD) | neurodegeneration (mouse model of HD) | protection (fly model of AD) | protection against neuronal loss [2] |
| --- | --- | --- | --- | --- | --- | --- | --- | --- | --- |
| O=C1Nc2ccc(I)cc2/C1=C/c1cc(Br)c(O)c(Br)c1 [GW5074, reference compound] | 21 |  |  |  |  |  |  |  |  |
| Nc1ccc2c(c1)NC(=O)/C(=C/c1cc(Br)c(O)c(Br)c1)O2 [HSB-13] |  | 3 | most inhibited | most inhibited | most inhibited | improved behavioral performance | prevented neurodegeneration | protective | protective |
